The values below come from patent publication US5603949A, “Use of a tocopherol phosphate or one of its derivatives, for the preparation of cosmetic or pharmaceutical compositions and compositions so obtained” (LVMH Recherche, priority 1991, dated 1997).

Structures can show the parent of a compound that is named as a salt.

In the experiment the target is T1, phospholipase A2 (Rattus norvegicus, UniProt P14423).
T1 construct: The phospholipase A2 is isolated from the peritoneal cavity of a rat; from tissue; host or cells: peritoneal cavity of a rat
T1 sequence (P14423 22-146): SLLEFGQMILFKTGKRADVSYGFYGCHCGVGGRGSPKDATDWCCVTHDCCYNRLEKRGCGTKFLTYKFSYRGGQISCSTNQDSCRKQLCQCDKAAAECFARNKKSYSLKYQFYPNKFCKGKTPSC
Kind of experiment: inhibition of phospholipase A2 (PLA2): release of 14C-labeled fatty acid from phosphatidylethanolamine. The format is biochemical. The note with it: PLA2 isolated from peritoneal cavity of a rat; 0.1M Tris-HCl, pH=9, Ca++; 20 min preincubation, then 20 min with substrate, 37° C.; read-out: 50% inhibitory concentration (IC50) (converted). Here is the method:
The inhibition of phospholipase A2, which is involved in the production of allergy and inflammation mediators, especially in the inflammatory reaction of skin allergies, is measured according to the protocol described by H. W. Chang, I. Kudo, M. Tomita and K. Inoue in J. Biochem. (Tokyo) 102(1): 147-154 (1987).
The phospholipase A2 is isolated from the peritoneal cavity of a rat. PLA2 hydrolyzes the ester linkage in the 2-position of the glycerol of a phosphatidylethanolamine, this position being occupied by a fatty acid residue labeled with carbon 14. The radioactive fatty acid released will be extracted and then quantitatively analyzed by liquid scintillation. In the presence of the PLA2 inhibitor, this hydrolysis will be reduced and less released fatty acid will therefore be determined.
In practice, the PLA2 and the test product are placed in a 0.1M Tris-HCl buffer, pH=9, containing 4 mmol of Ca^++ and the mixture is incubated for 20 min at 37° C., with agitation. After this contact time, the labeled phosphatidylethanolamine is added and incubation is continued for 20 min at 37° C., with agitation, to allow the hydrolysis of this substrate. n-Heptane is then used to extract the labeled fatty acid released during the hydrolysis, the latter then being quantitatively analyzed by liquid scintillation. […]

Take `Cc1cc(OP(=O)(O)O)cc2c1OC(C)(CCCC(C)CCCC(C)CCCC(C)C)CC2` (stereo not shown) [disodium salt of delta-tocopherol phosphate]: the IC50 is 20.7 µM.
